Tested on: 6-OHDA lesioned rats (striatum)
Assay: Experiment 1 online microdialysis in anesthetized rats (baseline, NSD-1015, NSD+TMP)
Type: in vivo, rat
Procedure: The second microdialysis protocol in Experiment 1 (identical microdialysis methods and protocols were used in the pilot study) was performed in anaesthetized animals was performed in TH+DD-GCH1 treated animals that received oral TMP administration in their drinking water at least 2 weeks prior sampling; either 0.5 mg/ml (n=4) or 2 mg/ml (n=5) (same TMP emulsion that was administered to the animals followed with behavior tests). In addition, this experiment also included animals from the TH+GCH1 (n=3), Les-Sham (n=2) and intact control (n=3) groups. Probe placement was calculated to position the membrane of the probe in the center of the transduction area in striatum, which corresponded to the coordinates: AP: +0.5 mm; ML: −3.7 mm and DV: −5.7 mm with the tooth bar set to −2.4 mm. […] Samples were analyzed readily as described for the first microdialysis experiment. After the last sample was collected the animal was terminated and brain tissue taken for histology.

## COc1cc(Cc2cnc(N)nc2N)cc(OC)c1OC [TMP, trimethoprim]
0.5 and 2.0 mg/ml TMP in drinking water, TH+DD-GCH1 treated rats
  biochemical reconstitution with oral TMP: both were effective in reaching a similar biochemical reconstitution
2E-5 M TMP lactate plus NSD-1015 via probe for 2 h, after 2 weeks oral TMP
  DOPA levels after addition of TMP to the ringer solution: did not further increase the DOPA levels
